Reference: ChEMBL document CHEMBL2040793, “Thieno[3,2-c]pyran-4-one based novel small molecules: their synthesis, crystal structure analysis and in vitro evaluation as potential anticancer agents” (Bioorg Med Chem Lett, 2012)

tested on: K562; experiment: Growth inhibition of human K562 cells at 10 uM after 24 hrs by MTT assay; assay type: functional; details: K562, 24 h, read-out: GI

First: O=c1oc(-c2ccccc2)c(I)c2sc3c(c12)CCCCC3
Second: O=c1oc(-c2ccccc2)c(I)c2sc3c(c12)CCCC3
The inhibition of growth at 10 µM of the first is lower: 30.3% for the first, 38.1% for the second.

Going from `CCCCC#Cc1c(-c2ccccc2)oc(=O)c2c3c(sc12)CCCCC3` to `CCCCCC#Cc1c(-c2ccccc2)oc(=O)c2c3c(sc12)CCCCC3`, the inhibition of growth at 10 µM falls from 66.4% to 12.3%.

Compared with `Cc1ccc(-c2oc(=O)c3c4c(sc3c2I)CCCC4)cc1`, `O=c1oc(-c2ccccc2)c(-c2ccc(O)cc2)c2sc3c(c12)CCCC3` is lower in inhibition of growth at 10 µM: 64.2% for the first, 9.85% for the second.

Going from `CC(C)(C)OC(=O)N1CCc2c(sc3c(I)c(-c4ccccc4)oc(=O)c23)C1` to `CC(C)(O)C#Cc1c(-c2ccccc2)oc(=O)c2c3c(sc12)CCCCC3`, the inhibition of growth at 10 µM rises from 8.34% to 9.32%.

Compared with `O=c1oc(-c2ccccc2)c(C#Cc2ccccc2)c2sc3c(c12)CCCCC3`, `O=c1oc(-c2ccccc2)c(-c2ccccc2)c2sc3c(c12)CCCCC3` is higher in inhibition of growth at 10 µM: 13.9% for the first, 24% for the second.

Going from `CCOC(=O)/C=C/c1c(-c2ccccc2)oc(=O)c2c3c(sc12)CCCCC3` to `O=c1oc(-c2ccccc2)c(-c2ccccc2)c2sc3c(c12)CCC3`, the inhibition of growth at 10 µM falls from 27.4% to 26.7%.

tested on: MDA-MB-231; experiment: Growth inhibition of human MDA-MB-231 cells at 10 uM after 24 hrs by MTT assay; assay type: functional; details: MDA-MB-231, 24 h, read-out: GI

First: O=c1oc(-c2ccccc2)c(I)c2sc3c(c12)CCCCC3
Second: O=c1oc(-c2ccccc2)c(I)c2sc3c(c12)CCCC3
The inhibition of growth at 10 µM of the first is higher: 40.1% for the first, 22.7% for the second.

Compared with `CCCCC#Cc1c(-c2ccccc2)oc(=O)c2c3c(sc12)CCCCC3`, `CCCCCC#Cc1c(-c2ccccc2)oc(=O)c2c3c(sc12)CCCCC3` is higher in inhibition of growth at 10 µM: 25.2% for the first, 41.9% for the second.

Compared with `Cc1ccc(-c2oc(=O)c3c4c(sc3c2I)CCCC4)cc1`, `O=c1oc(-c2ccccc2)c(-c2ccc(O)cc2)c2sc3c(c12)CCCC3` is lower in inhibition of growth at 10 µM: 32.5% for the first, 22.9% for the second.

Compared with `CC(C)(C)OC(=O)N1CCc2c(sc3c(I)c(-c4ccccc4)oc(=O)c23)C1`, `CC(C)(O)C#Cc1c(-c2ccccc2)oc(=O)c2c3c(sc12)CCCCC3` is lower in inhibition of growth at 10 µM: 27.5% for the first, 21.6% for the second.

Compared with `O=c1oc(-c2ccccc2)c(C#Cc2ccccc2)c2sc3c(c12)CCCCC3`, `O=c1oc(-c2ccccc2)c(-c2ccccc2)c2sc3c(c12)CCCCC3` is lower in inhibition of growth at 10 µM: 34.7% for the first, 7.42% for the second.

Going from `CCOC(=O)/C=C/c1c(-c2ccccc2)oc(=O)c2c3c(sc12)CCCCC3` to `O=c1oc(-c2ccccc2)c(-c2ccccc2)c2sc3c(c12)CCC3`, the inhibition of growth at 10 µM falls from 42.6% to 12.4%.

tested on: HepG2; experiment: Growth inhibition of human HepG2 cells at 10 uM after 24 hrs by MTT assay; assay type: functional; details: HepG2, 24 h, read-out: GI

Going from `O=c1oc(-c2ccccc2)c(I)c2sc3c(c12)CCCCC3` to `O=c1oc(-c2ccccc2)c(I)c2sc3c(c12)CCCC3`, the inhibition of growth at 10 µM falls from 12% to 0%.

Compared with `CCCCC#Cc1c(-c2ccccc2)oc(=O)c2c3c(sc12)CCCCC3`, `CCCCCC#Cc1c(-c2ccccc2)oc(=O)c2c3c(sc12)CCCCC3` is higher in inhibition of growth at 10 µM: 24.1% for the first, 24.8% for the second.

Compared with `Cc1ccc(-c2oc(=O)c3c4c(sc3c2I)CCCC4)cc1`, `O=c1oc(-c2ccccc2)c(-c2ccc(O)cc2)c2sc3c(c12)CCCC3` is lower in inhibition of growth at 10 µM: 68.2% for the first, 23% for the second.

Going from `CC(C)(C)OC(=O)N1CCc2c(sc3c(I)c(-c4ccccc4)oc(=O)c23)C1` to `CC(C)(O)C#Cc1c(-c2ccccc2)oc(=O)c2c3c(sc12)CCCCC3`, the inhibition of growth at 10 µM rises from 15.5% to 25%.

Going from `O=c1oc(-c2ccccc2)c(C#Cc2ccccc2)c2sc3c(c12)CCCCC3` to `O=c1oc(-c2ccccc2)c(-c2ccccc2)c2sc3c(c12)CCCCC3`, the inhibition of growth at 10 µM rises from 20.1% to 35.9%.

First: CCOC(=O)/C=C/c1c(-c2ccccc2)oc(=O)c2c3c(sc12)CCCCC3
Second: O=c1oc(-c2ccccc2)c(-c2ccccc2)c2sc3c(c12)CCC3
The inhibition of growth at 10 µM of the first is lower: 12% for the first, 13.4% for the second.

tested on: not listed separately; experiment: Growth inhibition of human HEK293 cells at 10 uM after 24 hrs by MTT assay; assay type: cell-based; details: read-out: GI

First: O=c1oc(-c2ccccc2)c(I)c2sc3c(c12)CCCCC3
Second: O=c1oc(-c2ccccc2)c(I)c2sc3c(c12)CCCC3
The inhibition at 24 h, 10 µM of the first is lower: 0.23% for the first, 0.6% for the second.

Compared with `CCCCC#Cc1c(-c2ccccc2)oc(=O)c2c3c(sc12)CCCCC3`, `CCCCCC#Cc1c(-c2ccccc2)oc(=O)c2c3c(sc12)CCCCC3` is lower in inhibition at 24 h, 10 µM: 3.2% for the first, 0.44% for the second.

First: Cc1ccc(-c2oc(=O)c3c4c(sc3c2I)CCCC4)cc1
Second: O=c1oc(-c2ccccc2)c(-c2ccc(O)cc2)c2sc3c(c12)CCCC3
The inhibition at 24 h, 10 µM of the first is lower: 0% for the first, 0.5% for the second.

Compared with `CC(C)(C)OC(=O)N1CCc2c(sc3c(I)c(-c4ccccc4)oc(=O)c23)C1`, `CC(C)(O)C#Cc1c(-c2ccccc2)oc(=O)c2c3c(sc12)CCCCC3` is lower in inhibition at 24 h, 10 µM: 9.03% for the first, 4.2% for the second.

First: O=c1oc(-c2ccccc2)c(C#Cc2ccccc2)c2sc3c(c12)CCCCC3
Second: O=c1oc(-c2ccccc2)c(-c2ccccc2)c2sc3c(c12)CCCCC3
The inhibition at 24 h, 10 µM of the first is higher: 1.7% for the first, 0.01% for the second.

Compared with `CCOC(=O)/C=C/c1c(-c2ccccc2)oc(=O)c2c3c(sc12)CCCCC3`, `O=c1oc(-c2ccccc2)c(-c2ccccc2)c2sc3c(c12)CCC3` is higher in inhibition at 24 h, 10 µM: 1.11% for the first, 4% for the second.

tested on: K562; experiment: Cytotoxicity against human K562 cells after 24 hrs by MTT assay; assay type: functional, cell-based; details: K562, 24 h

`CCCCC#Cc1c(-c2ccccc2)oc(=O)c2c3c(sc12)CCCCC3` and `Cc1ccc(-c2oc(=O)c3c4c(sc3c2I)CCCC4)cc1` are within 1.5-fold of each other in IC50: 2280 nM for the first, 2330 nM for the second.

`Cc1ccc(NC(=O)c2ccc(CN3CCN(C)CC3)cc2)cc1Nc1nccc(-c2cccnc2)n1` [IMATINIB] gave an IC50 of 100 nM.

tested on: HepG2; experiment: Cytotoxicity against human HepG2 cells after 24 hrs by MTT assay; assay type: functional, cell-based; details: HepG2, 24 h

In the case of `Cc1ccc(-c2oc(=O)c3c4c(sc3c2I)CCCC4)cc1`, the IC50 is reported as 2380 nM.

tested on: Saccharomyces cerevisiae; experiment: Inhibition of yeast SIRT2 assessed as derepression of Ura3 gene at 50 uM in presence of 5-fluoroorotic acid; details: not given

`CCCCC#Cc1c(-c2ccccc2)oc(=O)c2c3c(sc12)CCCCC3` and `Cc1ccc(-c2oc(=O)c3c4c(sc3c2I)CCCC4)cc1` are the same in inhibition: 30% for the first, 30% for the second.

tested on: HepG2; experiment: Ratio of doxorubicin IC50 to compound IC50 for human HepG2 cells; assay type: functional; details: not given

With `Cc1ccc(-c2oc(=O)c3c4c(sc3c2I)CCCC4)cc1` the “Ratio IC50” value was over 2.
